Data reported in publication PMC8292346, “Dysfunction of the key ferroptosis-surveilling systems hypersensitizes mice to tubular necrosis during acute kidney injury” (Nature Communications, 2021).
Values joined by “and” are separate entries in the source; they are usually repeats but may differ in a detail not shown here. Identical values can stand only once. Like-named read-outs stand apart in the source and are kept apart here.

Assays:
[1] = test system: NIH3T3 cells; test: TZ-induced necroptosis, 7-AAD/annexin V flow cytometry; format: cell-based, murine; conditions: NIH3T3, TZ 16 h
Procedure: To induce necroptosis in a human cell line, HT29 cells were stimulated at the indicated time points with 20 ng/ml human TNFα (Biolegend), 1 μM SMAC-mimetics (Birinapant, Chemietek), and 20 μM zVAD-fmk (Selleckchem, herein referred to as zVAD). For the induction of necroptosis in NIH3T3 cells, cells were incubated with 20 ng/ml TNF-α and 20 μM zVAD for indicated time points. […] Cells were seeded in six-well plates or petri dishes. […] After indicated time points, cells were collected and prepared for flow cytometry, immunoblotting, and/or LDH release assays.
Cells were harvested and the pellets were washed twice in PBS and stained with 5 μl of 7-AAD (BD Biosciences) and 5 μl of annexin-V-FITC (BD Biosciences) added to 100 μl annexin-V binding buffer (BD Biosciences). After 15 min, cells were recorded on the LSRII with the FACS Diva 6.1.1 software (BD Biosciences) and subsequently analyzed with the FlowJo v10 software (Tree Star).

[2] = target: M2 (h) (Homo sapiens, UniProt P08172); test: Off-target radioligand binding screen; conditions: read-out: M2 (h) ($): inhibition of radioligand binding
Sequence of M2 (h) (P08172 whole entry): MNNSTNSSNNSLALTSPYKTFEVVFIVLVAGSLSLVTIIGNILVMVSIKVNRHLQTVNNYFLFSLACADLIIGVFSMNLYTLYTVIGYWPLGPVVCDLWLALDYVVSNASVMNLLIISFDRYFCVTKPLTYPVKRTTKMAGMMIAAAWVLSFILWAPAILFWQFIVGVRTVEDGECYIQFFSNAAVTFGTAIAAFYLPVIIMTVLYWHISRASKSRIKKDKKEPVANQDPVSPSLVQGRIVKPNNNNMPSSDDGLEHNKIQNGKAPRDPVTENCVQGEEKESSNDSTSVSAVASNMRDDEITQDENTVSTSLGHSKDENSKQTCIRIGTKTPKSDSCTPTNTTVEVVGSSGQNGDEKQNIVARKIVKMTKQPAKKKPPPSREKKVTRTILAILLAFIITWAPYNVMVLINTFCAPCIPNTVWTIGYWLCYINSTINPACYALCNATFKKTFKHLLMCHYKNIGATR

[3] = target: CB1(h) (Homo sapiens, UniProt P21554); test: Off-target radioligand binding screen; conditions: read-out: CB1(h) (#): inhibition of radioligand binding
[4] = target: kappa (h) (KOP) (Homo sapiens, UniProt P41145); test: Off-target radioligand binding screen; conditions: read-out: kappa (h) (KOP) (#): inhibition of radioligand binding
Sequence of kappa (h) (KOP) (P41145 whole entry): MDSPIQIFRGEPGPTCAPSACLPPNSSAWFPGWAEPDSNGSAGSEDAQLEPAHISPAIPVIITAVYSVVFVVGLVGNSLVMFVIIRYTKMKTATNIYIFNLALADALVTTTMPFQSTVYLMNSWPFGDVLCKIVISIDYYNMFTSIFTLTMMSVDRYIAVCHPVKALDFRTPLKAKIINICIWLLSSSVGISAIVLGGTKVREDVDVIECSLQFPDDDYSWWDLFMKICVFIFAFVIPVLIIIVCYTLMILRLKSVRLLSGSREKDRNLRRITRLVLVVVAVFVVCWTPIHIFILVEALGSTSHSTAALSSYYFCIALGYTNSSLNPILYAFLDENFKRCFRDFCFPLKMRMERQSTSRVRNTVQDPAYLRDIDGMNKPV

[5] = target: α1A(h) (Homo sapiens, UniProt P35348); test: Off-target radioligand binding screen; conditions: read-out: α1A(h) ($): inhibition of radioligand binding
Sequence of α1A(h) (P35348 whole entry): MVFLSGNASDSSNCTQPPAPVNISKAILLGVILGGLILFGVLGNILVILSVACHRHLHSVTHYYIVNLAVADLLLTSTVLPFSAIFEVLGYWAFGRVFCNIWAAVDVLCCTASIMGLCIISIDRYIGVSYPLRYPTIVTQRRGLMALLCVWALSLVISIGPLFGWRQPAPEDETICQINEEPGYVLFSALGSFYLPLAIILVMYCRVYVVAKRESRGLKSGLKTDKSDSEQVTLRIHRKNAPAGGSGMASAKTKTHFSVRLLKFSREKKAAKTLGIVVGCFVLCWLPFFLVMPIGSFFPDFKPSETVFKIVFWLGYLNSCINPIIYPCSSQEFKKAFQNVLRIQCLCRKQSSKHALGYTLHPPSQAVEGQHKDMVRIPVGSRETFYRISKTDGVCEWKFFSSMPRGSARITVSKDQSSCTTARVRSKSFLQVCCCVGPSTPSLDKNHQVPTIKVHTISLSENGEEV

[6] = target: 5-HT1A(h) (Homo sapiens, UniProt P08908); test: Off-target radioligand binding screen; conditions: read-out: 5-HT1A(h) (#): inhibition of radioligand binding
Sequence of 5-HT1A(h) (P08908 whole entry): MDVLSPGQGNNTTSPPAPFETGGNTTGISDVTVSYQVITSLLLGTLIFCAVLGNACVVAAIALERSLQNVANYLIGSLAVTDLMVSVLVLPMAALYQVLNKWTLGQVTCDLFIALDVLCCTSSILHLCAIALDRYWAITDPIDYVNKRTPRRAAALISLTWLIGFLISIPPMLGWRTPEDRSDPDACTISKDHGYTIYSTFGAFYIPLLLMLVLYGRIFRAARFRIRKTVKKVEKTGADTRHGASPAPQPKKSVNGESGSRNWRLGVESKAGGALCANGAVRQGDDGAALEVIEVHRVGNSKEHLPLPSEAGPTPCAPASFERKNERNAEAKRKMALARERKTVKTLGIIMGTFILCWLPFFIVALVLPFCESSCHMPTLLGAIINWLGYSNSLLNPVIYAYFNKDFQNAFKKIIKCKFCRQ

[7] = both, microsomes, 2 µM, pH 7.4
[8] = target: δ (DOP) (h) (Homo sapiens, UniProt P41143); test: Off-target radioligand binding screen; conditions: read-out: δ (DOP) (h) (#): inhibition of radioligand binding
Sequence of δ (DOP) (h) (P41143 whole entry): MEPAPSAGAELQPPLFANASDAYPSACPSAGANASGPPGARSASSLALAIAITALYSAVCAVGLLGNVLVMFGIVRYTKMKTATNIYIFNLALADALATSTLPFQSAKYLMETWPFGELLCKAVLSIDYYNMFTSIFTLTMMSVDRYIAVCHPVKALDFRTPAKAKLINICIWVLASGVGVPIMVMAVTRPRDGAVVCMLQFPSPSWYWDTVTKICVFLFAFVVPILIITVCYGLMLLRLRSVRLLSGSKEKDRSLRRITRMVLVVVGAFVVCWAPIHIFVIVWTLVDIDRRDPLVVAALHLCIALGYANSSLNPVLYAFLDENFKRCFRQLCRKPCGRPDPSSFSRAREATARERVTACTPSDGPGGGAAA

[9] = test system: B6 LysM-GFP mice; test: Intravital two-photon imaging of neutrophils in transplanted hearts; format: in vivo, mouse; conditions: heart transplantation, recipient mice 2.0 mg/kg body weight
Procedure: Hearts harvested from wild-type C57BL/6 mice were transplanted into the right neck of syngeneic LysM-GFP hosts, as previously described. […] Intravital two-photon imaging was performed using a custom-built microscope running ImageWarp version 2.1 acquisition software (A&B Software). For time-lapse imaging of cell trafficking, we averaged 15 video-rate frames (0.5 s per slice) during the acquisition. Each plane represents an image of 220 × 240 μm in the x and y dimensions and twenty-one sequential planes were acquired in the z dimension (2.5-μm each). Each individual neutrophil was tracked from its first appearance in the imaging window and followed up to the time point at which it dislocated more than 20 μm from its starting position. Fifty microlitres PBS containing 15 μl 655-nm nontargeted Q-dots (Thermo Fisher Scientific) were injected prior to imaging to visualize coronary vessels and assess whether neutrophils were intravascular or extravascular. The number of extravascular neutrophils was divided by the sum of intravascular and extravascular neutrophils to calculate extravasation. Imaris (Bitplane) was used for multidimensional rendering and manual cell tracking.

[10] = test system: NMDA; test: Off-target radioligand binding screen; conditions: Nec-1f 10 µM
[11] = target: β1(h) (Homo sapiens, UniProt P08588); test: Off-target radioligand binding screen; conditions: read-out: β1(h) (#): inhibition of radioligand binding
Sequence of β1(h) (P08588 whole entry): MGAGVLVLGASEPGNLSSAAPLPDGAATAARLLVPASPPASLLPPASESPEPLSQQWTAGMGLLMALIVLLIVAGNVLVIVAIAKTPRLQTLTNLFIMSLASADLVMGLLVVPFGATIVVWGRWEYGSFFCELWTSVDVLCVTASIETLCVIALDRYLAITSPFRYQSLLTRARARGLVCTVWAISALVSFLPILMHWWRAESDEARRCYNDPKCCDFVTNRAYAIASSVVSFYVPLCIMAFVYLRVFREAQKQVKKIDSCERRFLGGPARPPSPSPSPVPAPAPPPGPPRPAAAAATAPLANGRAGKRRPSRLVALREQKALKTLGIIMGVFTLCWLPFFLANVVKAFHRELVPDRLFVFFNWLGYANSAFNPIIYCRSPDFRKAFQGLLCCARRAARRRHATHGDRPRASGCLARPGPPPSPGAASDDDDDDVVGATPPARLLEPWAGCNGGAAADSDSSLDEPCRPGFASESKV

[12] = target: 5-HT2A(h) (Homo sapiens, UniProt P28223); test: Off-target radioligand binding screen; conditions: read-out: 5-HT2A(h) (#): inhibition of radioligand binding
Sequence of 5-HT2A(h) (P28223 whole entry): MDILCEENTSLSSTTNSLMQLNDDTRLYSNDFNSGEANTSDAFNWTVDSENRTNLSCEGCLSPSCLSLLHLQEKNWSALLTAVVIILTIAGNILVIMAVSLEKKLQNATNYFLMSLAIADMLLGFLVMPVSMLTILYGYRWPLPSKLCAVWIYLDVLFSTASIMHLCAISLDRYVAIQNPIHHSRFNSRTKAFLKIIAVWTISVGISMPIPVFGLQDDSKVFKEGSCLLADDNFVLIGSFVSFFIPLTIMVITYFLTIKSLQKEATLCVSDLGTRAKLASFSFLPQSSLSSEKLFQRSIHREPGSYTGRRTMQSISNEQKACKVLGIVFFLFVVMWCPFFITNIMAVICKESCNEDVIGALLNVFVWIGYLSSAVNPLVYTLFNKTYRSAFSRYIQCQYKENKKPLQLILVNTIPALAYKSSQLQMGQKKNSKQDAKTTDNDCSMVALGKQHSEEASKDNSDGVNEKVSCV

[13] = target: dopamine transporter(h) (Homo sapiens, UniProt Q01959); test: Off-target radioligand binding screen; conditions: read-out: dopamine transporter(h) ($): inhibition of radioligand binding
Sequence of dopamine transporter(h) (Q01959 whole entry): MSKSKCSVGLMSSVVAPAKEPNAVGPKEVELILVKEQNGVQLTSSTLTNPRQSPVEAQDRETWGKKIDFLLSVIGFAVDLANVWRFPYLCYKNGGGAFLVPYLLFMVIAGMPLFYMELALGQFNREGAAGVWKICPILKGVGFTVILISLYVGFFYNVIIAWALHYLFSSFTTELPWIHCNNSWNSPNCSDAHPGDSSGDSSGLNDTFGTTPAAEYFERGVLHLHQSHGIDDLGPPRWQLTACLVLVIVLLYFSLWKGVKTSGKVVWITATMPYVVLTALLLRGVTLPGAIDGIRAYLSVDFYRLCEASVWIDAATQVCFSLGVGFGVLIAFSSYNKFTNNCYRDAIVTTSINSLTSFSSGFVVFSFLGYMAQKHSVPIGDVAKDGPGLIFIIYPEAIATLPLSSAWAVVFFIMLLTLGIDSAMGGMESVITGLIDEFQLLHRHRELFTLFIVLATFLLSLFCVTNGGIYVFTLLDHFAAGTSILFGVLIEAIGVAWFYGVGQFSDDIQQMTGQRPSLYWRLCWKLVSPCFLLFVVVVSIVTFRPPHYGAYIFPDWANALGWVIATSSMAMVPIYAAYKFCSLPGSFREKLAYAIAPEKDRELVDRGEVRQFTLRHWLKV

[14] = target: MAO-A (Rattus norvegicus, UniProt P21396); test: Off-target radioligand binding screen; conditions: read-out: MAO-A ($): inhibition of radioligand binding
[15] = test system: BZD (central); test: Off-target radioligand binding screen; conditions: Nec-1f 10 µM
[16] = target: ETA(h) (Homo sapiens, UniProt P25101); test: Off-target radioligand binding screen; conditions: read-out: ETA(h) (#): inhibition of radioligand binding
Sequence of ETA(h) (P25101 21-427): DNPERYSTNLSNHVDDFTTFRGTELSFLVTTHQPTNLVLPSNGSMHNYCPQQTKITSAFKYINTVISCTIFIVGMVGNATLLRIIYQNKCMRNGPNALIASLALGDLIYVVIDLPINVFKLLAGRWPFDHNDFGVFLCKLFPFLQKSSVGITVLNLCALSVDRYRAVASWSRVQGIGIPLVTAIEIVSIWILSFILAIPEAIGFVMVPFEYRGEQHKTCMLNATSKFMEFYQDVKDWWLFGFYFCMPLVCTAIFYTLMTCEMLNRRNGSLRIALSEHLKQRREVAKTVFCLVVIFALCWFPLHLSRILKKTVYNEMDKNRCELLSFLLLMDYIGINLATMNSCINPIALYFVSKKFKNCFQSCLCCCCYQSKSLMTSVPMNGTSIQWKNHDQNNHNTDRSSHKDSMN

[17] = Stability in human plasma; format: in vitro ADME; conditions: 1 µM, 37 °C
Procedure: Plasma stability is defined as the percentage of parent compound remaining in plasma over the time. Here, incubations were carried out in 5 aliquots of 70 µl each (one for each time point), in duplicates. […] The percentage of the test compounds remaining after incubation in plasma and their half-lives (T1/2) was calculated.

[18] = target: D2S(h) (Homo sapiens, UniProt P14416); test: Off-target radioligand binding screen; conditions: read-out: D2S(h) (#): inhibition of radioligand binding
Sequence of D2S(h) (P14416 1-414 isoform P14416-2): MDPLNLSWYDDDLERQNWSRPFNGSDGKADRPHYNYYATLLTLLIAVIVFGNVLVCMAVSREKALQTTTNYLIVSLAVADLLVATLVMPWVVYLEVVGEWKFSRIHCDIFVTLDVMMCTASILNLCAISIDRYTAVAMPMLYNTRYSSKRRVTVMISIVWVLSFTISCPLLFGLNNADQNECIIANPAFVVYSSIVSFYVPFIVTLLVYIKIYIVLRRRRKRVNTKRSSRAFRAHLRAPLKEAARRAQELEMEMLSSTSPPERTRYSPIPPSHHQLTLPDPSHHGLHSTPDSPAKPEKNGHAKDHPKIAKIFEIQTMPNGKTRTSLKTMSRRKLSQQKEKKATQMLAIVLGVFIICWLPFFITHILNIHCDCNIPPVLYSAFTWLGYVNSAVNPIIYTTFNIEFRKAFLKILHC

[19] = target: CCK1 (CCKA) (h) (Homo sapiens, UniProt P32238); test: Off-target radioligand binding screen; conditions: read-out: CCK1 (CCKA) (h) (#): inhibition of radioligand binding
Sequence of CCK1 (CCKA) (h) (P32238 whole entry): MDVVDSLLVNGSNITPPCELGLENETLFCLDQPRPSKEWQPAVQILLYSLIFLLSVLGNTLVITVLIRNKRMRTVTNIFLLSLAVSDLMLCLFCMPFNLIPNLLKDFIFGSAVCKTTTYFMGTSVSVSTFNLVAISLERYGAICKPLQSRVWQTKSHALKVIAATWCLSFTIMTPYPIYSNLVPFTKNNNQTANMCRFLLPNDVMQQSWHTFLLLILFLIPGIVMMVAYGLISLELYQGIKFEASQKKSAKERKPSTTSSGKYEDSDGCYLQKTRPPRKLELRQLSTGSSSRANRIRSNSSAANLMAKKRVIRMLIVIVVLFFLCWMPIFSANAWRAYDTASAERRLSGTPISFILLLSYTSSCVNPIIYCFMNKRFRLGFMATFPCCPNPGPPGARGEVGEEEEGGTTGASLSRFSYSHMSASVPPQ

[20] = target: GR (h) (Homo sapiens, UniProt P04150); test: Off-target radioligand binding screen; conditions: read-out: GR (h) (#): inhibition of radioligand binding, Nec-1f 10 µM

CCOC(=O)c1ccc(NC2CCCCC2)c(N)c1 [Fer-1, ferrostatin-1]
7-AAD/annexin V flow cytometry, source data of bar graph Fig2i [1]: 7.78% and 9.49% and 6.87% and 10.1%

CN1C(=O)C(Cc2c[nH]c3c(Cl)cccc23)NC1=S (stereo not shown) [Nec-1f]
inhibition at 10 µM [2]: -1.7% | inhibition at 10 µM [3]: -24.7% | inhibition at 10 µM [4]: 16% | inhibition at 10 µM [5]: 4.8% | inhibition at 10 µM [6]: 9.1% | Human microsomal stability, parent compound remaining ([7]; 0 h): 100% | Human microsomal stability, parent compound remaining ([7]; 7 min): 80% | Human microsomal stability, parent compound remaining ([7]; 0.25 h): 65% | Human microsomal stability, parent compound remaining ([7]; 25 min): 48% | Human microsomal stability, parent compound remaining ([7]; 40 min): 34% | inhibition at 10 µM [8]: 2.8% | Density of neutrophils [9]: highly significant decreases | Extravasation of neutrophils [9]: highly significant reductions | Neutrophil rolling velocities [9]: significant increases | Rate of neutrophil recruitment to the graft [9]: did not alter | NMDA ($): inhibition of radioligand binding [10]: 1.4% | inhibition at 10 µM [11]: 3.7% | inhibition at 10 µM [12]: -2.8% | inhibition at 10 µM [13]: 34.3% | inhibition at 10 µM [14]: 44.4% | BZD (central) (#): inhibition of radioligand binding [15]: -4.6% | inhibition at 10 µM [16]: 0.9% | Human plasma stability, parent compound remaining ([17]; 0 min): 100% | Human plasma stability, parent compound remaining ([17]; 20 min): 97% | Human plasma stability, parent compound remaining ([17]; 40 min): 93% | Human plasma stability, parent compound remaining ([17]; 60 min): 89% | Human plasma stability, parent compound remaining ([17]; 120 min): 82% | inhibition at 10 µM [18]: 4.8% | inhibition at 10 µM [19]: 28.3% | inhibition at 10 µM [20]: ≥ 50%
